In this assay the target is T1, glucosylceramide synthase (Homo sapiens, UniProt Q16739).
T1 construct: made in house; host or cells: Expi293F cells (transient expression, pcDNA3.3-TOPO vector); microsome fraction used as enzyme source
T1 sequence (Q16739 1-394): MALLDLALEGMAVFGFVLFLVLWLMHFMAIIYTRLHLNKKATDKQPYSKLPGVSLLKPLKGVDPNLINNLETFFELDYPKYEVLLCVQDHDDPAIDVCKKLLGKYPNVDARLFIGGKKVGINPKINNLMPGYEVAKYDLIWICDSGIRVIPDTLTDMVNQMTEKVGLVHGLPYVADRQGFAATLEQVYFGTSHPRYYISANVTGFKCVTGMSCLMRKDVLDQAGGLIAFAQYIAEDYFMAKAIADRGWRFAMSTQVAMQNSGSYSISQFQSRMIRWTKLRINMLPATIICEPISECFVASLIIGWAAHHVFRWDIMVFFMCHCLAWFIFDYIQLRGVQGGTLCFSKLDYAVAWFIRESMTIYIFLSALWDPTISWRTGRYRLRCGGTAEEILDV
Put plainly: Glucosylceramide synthase (GCS) enzyme assay, microsome fraction, C8 glucosylceramide quantified by Rapidfire MS/MS. In kind it is biochemical. Conditions: test compound 10 μM; 1.7 μM UDP-glucose, 3 μM C8 ceramide; room temperature 60 min; read-out: GCS enzyme inhibitory rate at 10 μM (%) (% of control). The protocol:
Glucosylceramide Synthase (GCS) Assay
In enzyme assay, a microsome fraction obtained by transient expression by Expi293F™ cells (catalog number: A14527, Thermo Fisher Scientific) was used as a glucosylceramide synthase source. Liposomal C8 ceramide and UDP-glucose were used as substrates. […] After the enzymatic reaction, the analysis was performed with Rapidfire MS/MS (API-4000™, SCIEX), and C8 glucosylceramide was quantified to evaluate the inhibitory activity of the test compound against glucosylceramide synthase activity.
PcDNA3.3TOPO vector (catalog number: K830001, Thermo Fisher Scientific) into which the human GCS gene was inserted was introduced into Expi293F™ Cells (catalog number: A14527, Thermo Fisher Scientific) by using ExpiFectamine™ 293 Transfection Kit (catalog number: A14525, Thermo Fisher Scientific). The cultured cells were dissolved in D-PBS (catalog number: 048-29805, Fuji Film Wako Pure Chemical Industries, Ltd.) containing 1 mM PMSF, and the solution was allowed to stand on ice for 30 minutes, and then subjected to cell disruption (homogenized). The disruption solution was centrifuged at 10,000×g for 20 minutes at 4° C., and the obtained supernatant was centrifuged at 142,400×g for 60 minutes at 4° C. The obtained precipitate was resuspended in a D-PBS solution containing 1 mM PMSF, and homogenized again to prepare as a microsome fraction. Protein quantification was performed by the CBB method.
A 1 mM compound solution prepared by dissolving the test compound in DMSO was added to a 384-well plate by 100 nL so that the final concentration of the test compound was 10 μM. Next, a substrate solution consisting of 3.4 μM UDP-glucose and 6 μM C8 ceramide was added by 5 μL, followed by an enzyme solution consisting of a 25 μg/mL microsome fraction by 5 μL. C8 ceramide was prepared from liposomes composed of 15 mol % C8 ceramide and 85 mol % dioleoyl phosphatidylcholine (1,2-dioleoyl-sn-glycero-3-phosphocholine: DOPC). The enzymatic reaction was carried out in a solution consisting of 20 mM tris-hydrochloric acid buffer (pH 7.5), 0.01% Tween 20, 0.01% bovine serum albumin and 1 mM dithiothreitol at room temperature for 60 min. Then, a solution consisting of 75% isopropanol and 1% formic acid containing 0.25 μM N-Octadecanoyl-D35-psichosine (catalog number: 1914, Matreya) as an internal standard substance was added by 60 μL to stop the enzymatic reaction. 5 μL of the centrifugal supernatant of the obtained reaction product was analyzed by Rapidfire MS/MS (Agilent Technologies) using API-4000™ (SCIEX), and the C8 glucosylceramide was quantified to evaluate the inhibitory activity of the test compound against the glucosylceramide synthase activity. The inhibitory activity of the test compound was evaluated when the C8 glucosylceramide level in the enzyme-free solution was considered as 100% inhibitory and the enzyme activity of the DMSO group in the absence of the compound was considered as 0% inhibitory.

With `N#CC1(c2ccc(N3Cc4c(ccnc4-c4ccccc4OCC(F)F)C3=O)cc2)CC1` [Example 304, 1-(4-{4-[2-(2,2-difluoroethoxy)phenyl]-1-oxo-1,3-dihydro-2H-pyrrolo[3,4-c]pyridin-2-yl}phenyl) cyclopropane-1-carbonitrile], the inhibition at 10 µM was found to be 99%. As for `O=C1c2ccnc(-c3ccccc3OCC(F)(F)F)c2CN1c1ccc(C(O)(C(F)(F)F)C(F)(F)F)cc1` [Example 260, 2-[4-(1,1,1,3,3,3-hexafluoro-2-hydroxypropan-2-yl)phenyl]-4-[2-(2,2,2-trifluoroethoxy)phenyl]-2,3-dihydro-1H-pyrrolo[3,4-c]pyridin-1-one], the inhibition at 10 µM was found to be 100%. For `Cc1cc2c(c(-c3ccccc3OCC(F)(F)F)n1)CN(c1ccc(C(F)(F)C(C)(C)O)cc1)C2=O` [Example 342, 2-[4-(1,1-difluoro-2-hydroxy-2-methylpropyl)phenyl]-6-methyl-4-[2-(2,2,2-trifluoroethoxy)phenyl]-2,3-dihydro-1H-pyrrolo [3,4-c]pyridin-1-one], the inhibition at 10 µM was determined as 100%. Regarding `O=C1c2ccnc(-c3ccc(F)cc3OCC3(F)COC3)c2CN1c1ccc(OC(F)F)cc1` [Example 127, 2-[4-(difluoromethoxy)phenyl]-4-{4-fluoro-2-[(3-fluorooxetan-3-yl)methoxy]phenyl}-2,3-dihydro-1H-pyrrolo[3,4-c]pyridin-1-one], the inhibition at 10 µM was determined as 100%. Take `CC(C)(O)c1cc2c(c(-c3ccccc3OCC(F)F)n1)CN(c1ccc(OC(F)F)cc1)C2=O` [Example 355, 4-[2-(2,2-difluoroethoxy)phenyl]-2-[4-(difluoromethoxy)phenyl]-6-(2-hydroxypropan-2-yl)-2,3-dihydro-1H-pyrrolo[3,4-c]pyridin-1-one]: the inhibition at 10 µM stood at 100%. `O=C1c2ccnc(-c3ccc(F)cc3OCC(F)(F)F)c2CN1c1ccc(C2(O)CCOCC2)cc1` [Example 208, 4-[4-fluoro-2-(2,2,2-trifluoroethoxy)phenyl]-2-[4-(4-hydroxyoxatan-4-yl)phenyl]-2,3-dihydro-1H-pyrrolo[3,4-c]pyridin-1-one]: the inhibition at 10 µM is 99%. Take `CC(C)(C)[Si](C)(C)OC1(c2ccc(N3Cc4c(ccnc4-c4ccccc4OCC(F)(F)F)C3=O)nc2)CC1` [Example 266, 2-[5-(1-{[tert-butyl(dimethyl)silyl]oxy}cyclopropyl)pyridin-2-yl]-4-[2-(2,2,2-trifluoroethoxy)phenyl]-2,3-dihydro-1H-pyrrolo[3,4-c]pyridin-1-one]: the inhibition at 10 µM came out at 99%. The figure for `Cn1ccc(N2Cc3c(ccnc3-c3ccc(F)cc3OCC(F)(F)F)C2=O)n1` [Example 45, 4-[4-fluoro-2-(2,2,2-trifluoroethoxy)phenyl]-2-(1-methyl-1H-pyrazol-3-yl)-2,3-dihydro-1H-pyrrolo[3,4-c]pyridin-1-one] is 89%.

On to `O=C1c2ccnc(-c3ccccc3OCC3CC(F)(F)C3)c2CN1c1ccc(F)cc1` [Example 103, 4-{2-[(3,3-difluorocyclobutyl)methoxy]phenyl}-2-(4-fluorophenyl)-2,3-dihydro-1H-pyrrolo[3,4-c]pyridin-1-one], for which the inhibition at 10 µM came to 98%. With `O=C1c2ccnc(-c3ccc(F)cc3OCC(F)(F)F)c2CN1c1ccc(C2(O)CCOCC2)c(F)c1` [Example 219, 2-[3-fluoro-4-(4-hydroxyoxan-4-yl)phenyl]-4-[4-fluoro-2-(2,2,2-trifluoroethoxy)phenyl]-2,3-dihydro-1H-pyrrolo[3,4-c]pyridin-1-one] the figure was 98%; with `O=C1c2ccnc(-c3ccncc3OCC(F)(F)F)c2CN1c1ccc(OC(F)F)cc1` [Example 104, 2-[4-(difluoromethoxy)phenyl]-4-[3-(2,2,2-trifluoroethoxy)pyridin-4-yl]-2,3-dihydro-1H-pyrrolo[3,4-c]pyridin-1-one], 99%.

Take `O=C1c2ccnc(-c3ccc(F)cc3OCC3COC3)c2CN1c1ccc(OC(F)F)cc1` [Example 126, 2-[4-(difluoromethoxy)phenyl]-4-{4-fluoro-2-[(oxetan-3-yl)methoxy]phenyl}-2,3-dihydro-1H-pyrrolo[3,4-c]pyridin-1-one]: the inhibition at 10 µM stood at 97%. With `O=C1c2ccnc(-c3ccc(F)cc3OCC(F)(F)F)c2CN1c1ccc(OC(F)F)nn1` [Example 90, 2-[6-(difluoromethoxy)pyridazin-3-yl]-4-[4-fluoro-2-(2,2,2-trifluoroethoxy)phenyl]-2,3-dihydro-1H-pyrrolo[3,4-c]pyridin-1-one] the figure was 85%.

As for `O=C1c2ccnc(-c3ccc(F)cc3OCC(F)(F)F)c2CN1c1cnn(CC2(F)CC2)c1` [Example 213, 2-{1-[(1-fluorocyclopropyl)methyl]-1H-pyrazol-4-yl}-4-[4-fluoro-2-(2,2,2-trifluoroethoxy)phenyl]-2,3-dihydro-1H-pyrrolo[3,4-c]pyridin-1-one], the inhibition at 10 µM came out at 94%. For `N#Cc1ccc(N2Cc3c(ccnc3-c3ccccc3OC(F)F)C2=O)nc1` [Example 73, 6-{4-[2-(difluoromethoxy)phenyl]-1-oxo-1,3-dihydro-2H-pyrrolo[3,4-c]pyridin-2-yl}pyridine-3-carbonitrile], the inhibition at 10 µM was 90%. The figure for `CC(O)c1ccc(N2Cc3c(ccnc3-c3ccc(F)cc3OCC(F)(F)F)C2=O)cc1F` (racemic) [Example 292, rac-2-[3-fluoro-4-(1-hydroxyethyl)phenyl]-4-[4-fluoro-2-(2,2,2-trifluoroethoxy)phenyl]-2,3-dihydro-1H-pyrrolo [3,4-c]pyridin-1-one] is 99%; for `COc1ccccc1-c1nccc2c1CN(c1ccc(OC(F)(F)F)cn1)C2=O` [Example 29, 4-(2-methoxyphenyl)-2-[5-(trifluoromethoxy)pyridin-2-yl]-2,3-dihydro-1H-pyrrolo[3,4-c]pyridin-1-one] it is 96%. `O=C1c2ccnc(-c3ccc(F)cc3OCC(F)(F)F)c2CN1c1ccc(C(O)C(F)(F)F)c(F)c1` (racemic) [Example 293, rac-4-[4-fluoro-2-(2,2,2-trifluoroethoxy)phenyl]-2-[3-fluoro-4-(2,2,2-trifluoro-1-hydroxyethyl)phenyl]-2,3-dihydro-1H-pyrrolo [3,4-c]pyridin-1-one]: the inhibition at 10 µM came out at 88%.

For `Cc1cncc(OCC(F)(F)F)c1-c1nccc2c1CN(c1ccc(OC(F)F)cc1)C2=O` [Example 175, 2-[4-(difluoromethoxy)phenyl]-4-[3-methyl-5-(2,2,2-trifluoroethoxy)pyridin-4-yl]-2,3-dihydro-1H-pyrrolo[3,4-c]pyridin-1-one ditrifluoroacetate], the inhibition at 10 µM was determined as 100%. The figure for `O=C1c2ccnc(-c3ccccc3OCC(F)(F)F)c2CN1c1ccc(C(O)C(F)(F)F)nc1` (single isomer, unassigned) [Example 276, (R or S)-4-[2-(2,2,2-trifluoroethoxy)phenyl]-2-[6-(2,2,2-trifluoro-1-hydroxyethyl)pyridin-3-yl]-2,3-dihydro-1H-pyrrolo[3,4-c]pyridin-1-one] is 98%; for `CC(O)(c1ccc(N2Cc3c(ccnc3-c3ccc(F)cc3OCC(F)(F)F)C2=O)cc1)C(F)F` (single isomer, unassigned) [Example 311, (R or S)-2-[4-(1,1-difluoro-2-hydroxypropan-2-yl)phenyl]-4-[4-fluoro-2-(2,2,2-trifluoroethoxy)phenyl]-2,3-dihydro-1H-pyrrolo[3,4-c]pyridin-1-one] it is 100%.

Values taken from US12528802B2, “Heterocyclic compound” (Takeda Pharmaceutical Company Limited, priority 2019, dated 2026).
